The test system of experiment [1] is phosphorylation of EGFR (Tyr1068) in NCI-H1975 cell line that harbors the EGFR L858R T790M mutations. In words: NCI-H1975 pEGFR AlphaLISA assay. The conditions noted are these: Homo sapiens, NCI-H1975, inhibition of phosphorylation of mutant EGFR in NCI-H1975 cells; 4-5 hours incubation; read-out: Ext pEGFR H1975. It counts as cell-based. The method, boiled down: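 Phospho-EGFR Tyr1068 AlphaLISA readout: lysates taken from compound-treated H1975 cells (L858R T790M EGFR) after a 4-5 h exposure at 37 °C. Cells had adhered overnight beforehand. IC50 derived by plotting % pEGFR inhibition against log compound concentration.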
In general terms: Bead proximity is the source of the signal in Alpha formats.

For the next experiment, the target named is T1, EGFR (L858R T790M C797S) (Homo sapiens, UniProt P00533, C797S/L858R/T790M).
T1 construct: purchased SignalChem E10-122VG
T1 sequence (P00533 25-1210 T790M/C797S/L858R): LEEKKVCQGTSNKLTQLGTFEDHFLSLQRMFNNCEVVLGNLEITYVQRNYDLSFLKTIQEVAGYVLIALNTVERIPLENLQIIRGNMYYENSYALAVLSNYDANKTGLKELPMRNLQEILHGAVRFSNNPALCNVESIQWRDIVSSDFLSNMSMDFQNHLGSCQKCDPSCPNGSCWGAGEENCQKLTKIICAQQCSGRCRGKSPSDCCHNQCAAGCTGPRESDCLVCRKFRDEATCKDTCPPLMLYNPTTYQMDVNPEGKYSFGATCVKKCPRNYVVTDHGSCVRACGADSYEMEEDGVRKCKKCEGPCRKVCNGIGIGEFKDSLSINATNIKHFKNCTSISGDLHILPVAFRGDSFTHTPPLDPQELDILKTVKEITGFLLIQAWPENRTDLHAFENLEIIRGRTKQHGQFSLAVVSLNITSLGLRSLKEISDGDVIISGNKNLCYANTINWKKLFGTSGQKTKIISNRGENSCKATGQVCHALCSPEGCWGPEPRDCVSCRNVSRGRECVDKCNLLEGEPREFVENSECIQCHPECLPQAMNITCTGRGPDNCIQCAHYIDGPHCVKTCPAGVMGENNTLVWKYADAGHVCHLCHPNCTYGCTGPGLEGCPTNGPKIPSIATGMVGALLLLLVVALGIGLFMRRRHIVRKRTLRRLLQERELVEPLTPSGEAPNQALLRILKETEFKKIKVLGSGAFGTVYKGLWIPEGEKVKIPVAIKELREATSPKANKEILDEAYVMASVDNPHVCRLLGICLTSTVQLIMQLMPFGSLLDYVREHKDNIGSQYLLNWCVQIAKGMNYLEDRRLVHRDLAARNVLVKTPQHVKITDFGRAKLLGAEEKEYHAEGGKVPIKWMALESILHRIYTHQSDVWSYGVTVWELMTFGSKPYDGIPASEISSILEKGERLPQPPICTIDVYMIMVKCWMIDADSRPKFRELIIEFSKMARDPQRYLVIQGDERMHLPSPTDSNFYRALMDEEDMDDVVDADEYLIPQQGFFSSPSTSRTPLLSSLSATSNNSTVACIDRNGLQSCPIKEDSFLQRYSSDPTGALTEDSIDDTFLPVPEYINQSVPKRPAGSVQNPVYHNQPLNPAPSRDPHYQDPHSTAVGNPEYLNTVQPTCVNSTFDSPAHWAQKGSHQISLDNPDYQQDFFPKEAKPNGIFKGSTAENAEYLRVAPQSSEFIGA
In words: Biochemical EGFR inhibition assay (Caliper mobility shift), EGFR LRTMCS mutant. Conditions: inhibitory activity against EGFR LRTMCS mutant; apparent IC50; read-out: Ext Enz LRTMCS. Put shortly: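 Apparent IC50s were derived by plotting percent activity against the log of compound concentration. Activity was measured as phosphopeptide electrophoretically separated from substrate, after reactions at room temperature reached 10% to 20% phosphorylation and were halted with 35 mM EDTA.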

The source of these data is US12172983B2, “EGFR inhibitors” (Blueprint Medicines Corporation, priority 2019, dated 2024).

Each structure is given as a SMILES string.

As for `CCS(=O)(=O)C[C@H]1CN(c2nnc(C(C)C)c3cc(Nc4ccnc(N5CC[C@H](OC)[C@H](F)C5)n4)ncc23)[C@@H]1C` [Compound 207, N-{4-[(2R,3S)-3-[(ethanesulfonyl)methyl]-2-methylazetidin-1-yl]-1-(propan-2-yl)pyrido[3,4-d]pyridazin-7-yl}-2-[(3R,4S)-3-fluoro-4-methoxypiperidin-1-yl]pyrimidin-4-amine], the figures for the IC50 (in experiment [1]; at EGFR (L858R T790M C797S)) were 10.1 to 20 nM and at most 15 nM, respectively.

As for `CO[C@H]1CCN(c2nccc(Nc3cc4c(C(C)C)ncc(N5CC(CS(C)(=O)=O)C5)c4cn3)n2)C[C@H]1F` [Compound 73, N-{2-[(3R,4S)-3-fluoro-4-methoxypiperidin-1-yl]pyrimidin-4-yl}-8-[3-(methanesulfonylmethyl)azetidin-1-yl]-5-(propan-2-yl)-2,6-naphthyridin-3-amine], the IC50 is at most 10 nM in experiment [1] and at most 15 nM at EGFR (L858R T790M C797S).

With `CNCCO[C@H]1CCN(c2nccc(Nc3cc4c(C(C)C)ccc(N5C[C@H](CS(C)(=O)=O)[C@H]5C)c4cn3)n2)C[C@H]1F` [Compound 297, N-{2-[(3R,4S)-3-fluoro-4-[2-(methylamino)ethoxy]piperidin-1-yl]pyrimidin-4-yl}-8-[(2R,3S)-3-(methanesulfonylmethyl)-2-methylazetidin-1-yl]-5-(propan-2-yl)isoquinolin-3-amine], the IC50 in experiment [1] is at most 10 nM; at EGFR (L858R T790M C797S) it was at most 15 nM.

On to `CCS(=O)(=O)CC1CN(c2ccc(C(C)C)c3cc(Nc4cnnc(N5CC[C@@H](OC)[C@@H](F)C5)n4)ncc23)C1` [Compound 280, 8-{3-[(ethanesulfonyl)methyl]azetidin-1-yl}-N-{3-[(3S,4R)-3-fluoro-4-methoxypiperidin-1-yl]-1,2,4-triazin-5-yl}-5-(propan-2-yl)isoquinolin-3-amine], for which the IC50 in experiment [1] is at most 10 nM; on EGFR (L858R T790M C797S), at most 15 nM.

With `CO[C@H]1CCN(c2nccc(Nc3cc4c(C(C)C)ccc(N5C[C@H](CS(C)(=O)=O)[C@H]5C)c4cn3)n2)C[C@@H]1CO` (single isomer, unassigned) [Compound 172, [(3R,4S)-1-[4-({8-[(2R,3S)-3-(methanesulfonylmethyl)-2-methylazetidin-1-yl]-5-(propan-2-yl)isoquinolin-3-yl}amino)pyrimidin-2-yl]-4-methoxypiperidin-3-yl]methanol or [(3S,4R)-1-[4-({8-[(2R,3S)-3-(methanesulfonylmethyl)-2-methylazetidin-1-yl]-5-(propan-2-yl)isoquinolin-3-yl}amino)pyrimidin-2-yl]-4-methoxypiperidin-3-yl]methanol], the IC50 was 20.1 to 30 nM in experiment [1] and at most 15 nM on EGFR (L858R T790M C797S).

Turning to `CCS(=O)(=O)C[C@H]1CN(c2ncc(C(C)C)c3cc(Nc4ccnc(N5CC[C@@](C)(O)[C@@H](F)C5)n4)ncc23)[C@@H]1C` (single isomer, unassigned) [Compound 190], the IC50 in experiment [1] is at most 10 nM; at EGFR (L858R T790M C797S), at most 15 nM.

`CC[C@@]1(F)CN(c2nccc(Nc3cc4c(C(C)C)ccc(N5C[C@H](CS(C)(=O)=O)[C@H]5C)c4cn3)n2)CC[C@@H]1O` (single isomer, unassigned) [Compound 184, (3R,4S)-3-ethyl-3-fluoro-1-[4-({8-[(2R,3S)-3-(methanesulfonylmethyl)-2-methylazetidin-1-yl]-5-(propan-2-yl)isoquinolin-3-yl}amino)pyrimidin-2-yl]piperidin-4-ol or (3S,4R)-3-ethyl-3-fluoro-1-[4-({8-[(2R,3S)-3-(methanesulfonylmethyl)-2-methylazetidin-1-yl]-5-(propan-2-yl)isoquinolin-3-yl}amino)pyrimidin-2-yl]piperidin-4-ol]: the figures for the IC50 (in experiment [1]; on EGFR (L858R T790M C797S)) were at most 10 nM and at most 15 nM, respectively.

Consider `CC(C)c1ccc(N2C[C@H](CS(C)(=O)=O)[C@H]2C)c2cnc(Nc3ccnc(N4CC[C@H]5COC[C@H]54)n3)cc12` (single isomer, unassigned) [Compound 40], for which the results for the IC50 (in experiment [1]; at EGFR (L858R T790M C797S)) were at most 10 nM and at most 15 nM, respectively.

Consider `CCS(=O)(=O)CC1CN(c2ccc(C)c3cc(Nc4ccnc(N5CC[C@@H](O)[C@@](C)(F)C5)n4)ncc23)C1` (single isomer, unassigned) [Compound 25], for which the IC50 in experiment [1] is 30.1 to 50 nM; on EGFR (L858R T790M C797S), at most 15 nM.

Consider `CCS(=O)(=O)CC1CN(c2ccc(OC)c3cc(Nc4ccnc(N5CC[C@@H](O)[C@@](C)(F)C5)n4)ncc23)C1` (single isomer, unassigned) [Compound 77], for which the figures for the IC50 (in experiment [1]; on EGFR (L858R T790M C797S)) were 30.1 to 50 nM and 15.1 to 20 nM, respectively.

Regarding `CO[C@H]1CN(c2nccc(Nc3cc4c(C(C)C)ccc(N5C[C@H](CS(C)(=O)=O)[C@H]5C)c4cn3)n2)C[C@@H](F)[C@H]1O` (racemic) [Compound 200, (3R,4S,5S)-3-fluoro-1-(4-((5-isopropyl-8-((2R,3S)-2-methyl-3-((methylsulfonyl)methyl)azetidin-1-yl)isoquinolin-3-yl)amino)pyrimidin-2-yl)-5-methoxypiperidin-4-ol and (3S,4R,5R)-3-fluoro-1-(4-((5-isopropyl-8-((2R,3S)-2-methyl-3-((methylsulfonyl)methyl)azetidin-1-yl)isoquinolin-3-yl)amino)pyrimidin-2-yl)-5-methoxypiperidin-4-ol], the IC50 is at most 10 nM in experiment [1] and 15.1 to 20 nM on EGFR (L858R T790M C797S).

Consider `CC(C)c1ccc(N2C[C@H](CS(C)(=O)=O)[C@H]2C)c2cnc(Nc3ccnc(N4CC[C@H](O)C[C@H]4C)n3)cc12` (single isomer, unassigned) [Compound 49, (2R,4S)-1-[4-({8-[(2R,3S)-3-(methanesulfonylmethyl)-2-methylazetidin-1-yl]-5-(propan-2-yl)isoquinolin-3-yl}amino)pyrimidin-2-yl]-2-methylpiperidin-4-ol or (2S,4R)-1-[4-({8-[(2R,3S)-3-(methanesulfonylmethyl)-2-methylazetidin-1-yl]-5-(propan-2-yl)isoquinolin-3-yl}amino)pyrimidin-2-yl]-2-methylpiperidin-4-ol], for which the IC50 in experiment [1] is at most 10 nM; at EGFR (L858R T790M C797S), at most 15 nM.

As to `CC(C)c1ccc(N2C[C@H](CS(C)(=O)=O)[C@H]2C)c2cnc(Nc3ccnc(N4CCN(C)CC4)n3)cc12` [Compound 16, 8-[(2R,3S)-3-(methanesulfonylmethyl)-2-methylazetidin-1-yl]-N-[2-(4-methylpiperazin-1-yl)pyrimidin-4-yl]-5-(propan-2-yl)isoquinolin-3-amine], the IC50 in experiment [1] was 10.1 to 20 nM; at EGFR (L858R T790M C797S), 20.1 to 30 nM.

`CC1(C)CN(c2nccc(Nc3cc4ccnc(N5CC(CS(C)(=O)=O)C5)c4cn3)n2)C[C@@H](F)[C@H]1O` (single isomer, unassigned) [Compound 6, (4S,5R)-5-fluoro-1-[4-({8-[3-(methanesulfonylmethyl)azetidin-1-yl]-2,7-naphthyridin-3-yl}amino)pyrimidin-2-yl]-3,3-dimethylpiperidin-4-ol or (4R,5S)-5-fluoro-1-[4-({8-[3-(methanesulfonylmethyl)azetidin-1-yl]-2,7-naphthyridin-3-yl}amino)pyrimidin-2-yl]-3,3-dimethylpiperidin-4-ol]: the IC50 in experiment [1] is 20.1 to 30 nM; on EGFR (L858R T790M C797S), at most 15 nM.

In the case of `CC(C)c1ccc(N2C[C@H](CS(C)(=O)=O)[C@H]2C)c2cnc(Nc3cnnc(N4CC[C@@](C)(O)[C@@H](F)C4)n3)cc12` (single isomer, unassigned) [Compound 142], the values for the IC50 (in experiment [1]; at EGFR (L858R T790M C797S)) were 20.1 to 30 nM and at most 15 nM, respectively.

Regarding `CC(C)c1ccc(N2C[C@H](CS(C)(=O)=O)[C@H]2C)c2cnc(Nc3ccnc(N4CC[C@@H](F)[C@@H](O)C4)n3)cc12` (single isomer, unassigned) [Compound 269, (3S,4R)-4-fluoro-1-[4-({8-[(2R,3S)-3-(methanesulfonylmethyl)-2-methylazetidin-1-yl]-5-(propan-2-yl)isoquinolin-3-yl}amino)pyrimidin-2-yl]piperidin-3-ol or (3R,4S)-4-fluoro-1-[4-({8-[(2R,3S)-3-(methanesulfonylmethyl)-2-methylazetidin-1-yl]-5-(propan-2-yl)isoquinolin-3-yl}amino)pyrimidin-2-yl]piperidin-3-ol], the IC50 was at most 10 nM in experiment [1] and at most 15 nM on EGFR (L858R T790M C797S).

Regarding `CO[C@@H]1CCN(c2nncc(Nc3cc4c(C(C)C)ccc(N5CC(CS(C)(=O)=O)C5)c4cn3)n2)C[C@@H]1F` [Compound 75, N-{3-[(3S,4R)-3-fluoro-4-methoxypiperidin-1-yl]-1,2,4-triazin-5-yl}-8-[3-(methanesulfonylmethyl)azetidin-1-yl]-5-(propan-2-yl)isoquinolin-3-amine], the IC50 in experiment [1] is at most 10 nM; at EGFR (L858R T790M C797S) it was at most 15 nM.

With `CC(C)c1ccc(N2C[C@H](CS(C)(=O)=O)[C@H]2C)c2cnc(Nc3ccnc(N4CC[C@](C)(O)[C@H](O)C4)n3)cc12` (single isomer, unassigned) [Compound 100, (3R,4S)-1-[4-({8-[(2R,3S)-3-(methanesulfonylmethyl)-2-methylazetidin-1-yl]-5-(propan-2-yl)isoquinolin-3-yl}amino)pyrimidin-2-yl]-4-methylpiperidine-3,4-diol or (3S,4R)-1-[4-({8-[(2R,3S)-3-(methanesulfonylmethyl)-2-methylazetidin-1-yl]-5-(propan-2-yl)isoquinolin-3-yl}amino)pyrimidin-2-yl]-4-methylpiperidine-3,4-diol], the IC50 in experiment [1] is at most 10 nM; at EGFR (L858R T790M C797S), at most 15 nM.
